Earlier results as cited in US20240285773A1, “METHODS OF TREATING MYELODYSPLASTIC SYNDROME AND MONITORING THE TREATMENT” (Geron Corporation, priority 2023, published 2024).

System: patients with del(5q) MDS
Conditions: cited from earlier work

## Nc1cccc2c1CN(C1CCC(=O)NC1=O)C2=O (stereo not shown) [lenalidomide, 3-(4-Amino-1-oxoisoindolin-2-yl)piperidine-2,6-dione]
  Transfusion independence, proportion of patients: two-thirds
